Like-named read-outs stand apart in the source and are kept apart here.
What was measured:
PDE10A = biological target: T1, PDE10A (Homo sapiens, UniProt Q9Y233); test: Inhibition of recombinant PDE10A (baculovirus/SF21 system), [3H]-cAMP SPA; format: biochemical; conditions: read-out: PDE10A IC50
T1 construct: made in house; host or cells: SF21 insect cells (baculovirus)
Procedure: Inhibition of Recombinant PDE10A (Baculovirus/SF21 System)
The gene was than inserted into a baculovirus vector, ligated with the baculovirus DNA. The enzyme-protein was expressed in SF21-cells. The enzyme was isolated from these cells by harvesting the cells by an centrifugation at 500 g to collect the cells.
The cells were resuspended in 50 mM Tris-HCl/1 mM EDTA/250 mM Sucrose buffer, pH=7.4 (Sigma, Deisenhofen, Germany; Merck, Darmstadt, Germany) and lysed by sonification of the cells (three times for 15 seconds, Labsonic U, Fa. Braun, Degersheim, Switzerland, level “high”). The cytosolic PDE10A was obtained by a centrifugation at 48,000 g for 1 h in the supernatant and stored at −70° C.
PDE activity was determined in a one step procedure in microtiter plates. The reaction mixture of 100 μl contained 50 mM Tris-HCl/5 mM MgCl2 buffer (pH=7.4, Sigma, Deisenhofen, Germany; Merck, Darmstadt, Germany) 0.1 μM [3H]-cAMP (Amersham, Buckinghamshire, UK) and the enzyme. Non-specific enzyme activity was determined without the enzyme. The reaction was initiated by addition of the substrate solution and was carried out at 37° C. for 30 minutes. Enzymatic activity then was stopped by addition of 25 μl Ysi-SPA-beads (Amersham-Pharmacia). One hour later the mixture was measured in a liquid scintillation counter for microtiter plates (Microbeta Trilux). The Biomek 2000 (Beckman) was used routinely for pipetting of the incubation mixture. […] For determination of IC50 values the Hill-plot, 2-parameter-model, was used.

PDE2A = biological target: T2, PDE2A (Homo sapiens, UniProt O00408); test: Inhibition of recombinant PDE2A (expressed in baculovirus/SF21-cells), [3H]-cAMP SPA; format: biochemical
T2 construct: made in house; host or cells: SF21 insect cells (baculovirus)
Procedure: Inhibition of Recombinant PDE2A (Expressed in Baculovirus/SF21-Cells)
PDE2A (NM002599) was cloned and the gene was inserted in the baculovirus and the enzyme-protein expressed in SF21-cells. The enzyme was isolated from these cells by harvesting the cells by an centrifugation at 200 g to collect the cells. The cells were resuspended in 50 mM Tris-HCl/5 mM MgCl2 buffer (pH=7.4) (Sigma, Deisenhofen, Germany; Merck, Darmstadt, Germany) and lysed by a sonication of the cells (three times for 15 seconds, Labsonic U, Fa. Braun, Degersheim, Switzerland, level “high”). The membrane fraction of PDE2A was obtained by a centrifugation at 48 000 g for 1 h, resuspended in buffer and stored at −70° C.
PDE2A activity was determined in a one step procedure in microtiterplates. The reaction mixture of 100 μl contained 50 mM Tris-HCl/5 mM MgCl2 buffer (pH=7.4) (Sigma, Deisenhofen, Germany; Merck, Darmstadt, Germany), 0.5 μM [3H]-cAMP (Amersham, Buckinghamshire, UK), 1000 nM cGMP and the enzyme. Non-specific enzyme activity was tested in the absence of cGMP. The reaction was initiated by addition of the substrate solution and was carried out at 37° C. for 30 minutes. Enzymatic activity then was stopped by addition of 25 μl SPA-beads (Amersham-Pharmacia). One hour later the mixture was measured in a liquid scintillation counter for microtiterplates (Microbeta Trilux). For pipetting of the incubation mixture the robot Biomek (Fa. Beckman) was routinely used.
For determination of IC50 values the Hill-plot, 2-parameter-model, was used.

[1] = recombinant PDE10A1, cytosolic, 0.1 μM [3H]-cAMP, 37° C., 30 minutes

T1 sequence (Q9Y233 1-779 isoform Q9Y233-1): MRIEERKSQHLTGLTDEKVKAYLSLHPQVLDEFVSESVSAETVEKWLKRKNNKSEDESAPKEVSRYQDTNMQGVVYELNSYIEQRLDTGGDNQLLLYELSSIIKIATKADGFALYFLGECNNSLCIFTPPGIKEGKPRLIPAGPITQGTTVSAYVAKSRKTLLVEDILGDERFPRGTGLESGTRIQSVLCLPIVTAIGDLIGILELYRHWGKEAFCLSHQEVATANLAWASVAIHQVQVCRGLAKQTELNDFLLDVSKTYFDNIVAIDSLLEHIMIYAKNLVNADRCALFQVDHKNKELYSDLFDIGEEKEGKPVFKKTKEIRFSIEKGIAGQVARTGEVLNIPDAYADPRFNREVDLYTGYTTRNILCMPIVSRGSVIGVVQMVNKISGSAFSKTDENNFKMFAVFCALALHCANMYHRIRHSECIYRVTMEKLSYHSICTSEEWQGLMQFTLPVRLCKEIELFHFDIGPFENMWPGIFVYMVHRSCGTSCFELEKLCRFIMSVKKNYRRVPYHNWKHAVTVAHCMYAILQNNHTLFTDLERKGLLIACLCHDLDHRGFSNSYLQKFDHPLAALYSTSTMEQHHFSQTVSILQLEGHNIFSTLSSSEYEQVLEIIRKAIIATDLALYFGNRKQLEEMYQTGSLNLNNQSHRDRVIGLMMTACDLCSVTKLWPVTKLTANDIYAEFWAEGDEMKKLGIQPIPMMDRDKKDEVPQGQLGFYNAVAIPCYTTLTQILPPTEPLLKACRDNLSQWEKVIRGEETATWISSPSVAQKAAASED
T2 sequence (O00408 whole entry): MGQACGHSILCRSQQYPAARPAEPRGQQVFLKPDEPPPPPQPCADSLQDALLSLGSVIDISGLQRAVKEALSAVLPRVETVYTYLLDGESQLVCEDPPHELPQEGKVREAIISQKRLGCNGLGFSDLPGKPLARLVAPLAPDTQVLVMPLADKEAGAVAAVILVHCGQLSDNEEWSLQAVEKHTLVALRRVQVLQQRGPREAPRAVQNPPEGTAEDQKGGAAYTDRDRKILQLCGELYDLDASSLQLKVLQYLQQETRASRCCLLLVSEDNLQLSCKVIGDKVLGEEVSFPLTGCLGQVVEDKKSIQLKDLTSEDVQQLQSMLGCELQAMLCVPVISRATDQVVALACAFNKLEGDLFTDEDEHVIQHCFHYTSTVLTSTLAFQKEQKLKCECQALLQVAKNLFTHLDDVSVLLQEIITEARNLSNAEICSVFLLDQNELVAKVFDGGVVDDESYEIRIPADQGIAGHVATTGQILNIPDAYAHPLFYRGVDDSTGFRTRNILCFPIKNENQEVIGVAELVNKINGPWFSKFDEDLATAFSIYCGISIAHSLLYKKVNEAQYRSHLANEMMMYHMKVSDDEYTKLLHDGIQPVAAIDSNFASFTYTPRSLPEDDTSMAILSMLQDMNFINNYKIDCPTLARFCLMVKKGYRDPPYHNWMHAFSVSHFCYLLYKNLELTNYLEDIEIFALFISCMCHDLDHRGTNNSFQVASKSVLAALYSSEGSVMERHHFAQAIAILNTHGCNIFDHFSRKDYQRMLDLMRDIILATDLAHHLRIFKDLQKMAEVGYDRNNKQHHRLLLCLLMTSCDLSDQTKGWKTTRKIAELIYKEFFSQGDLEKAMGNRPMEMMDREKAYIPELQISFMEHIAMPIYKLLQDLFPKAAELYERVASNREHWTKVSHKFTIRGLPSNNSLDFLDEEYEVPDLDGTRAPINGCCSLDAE

Row | Molecule | IC50 (PDE10A; [1]) [nM] | IC50 (PDE2A; recombinant PDE2A, membrane fraction, 0.5 μM [3H]-cAMP, 1000 nM cGMP, 37° C., 30 minutes, read-out: PDE2A IC50) [nM] | IC50 (PDE10A) [nM] | IC50 (PDE2A) [nM]
1 | 8-fluoro-1-isobutyl-3-methylbenzo[e]imidazo[5,1-c][1,2,4]triazine [Example 9] | 156 | 302 |  | 
2 | 8-fluoro-6-methoxy-3-methyl-1-(2-methylpyridin-3-yl)imidazo[5,1-c][1,2,4]benzotriazine [Example 130] |  |  | 7.84 | 
3 | 8-fluoro-6-methoxy-3-methyl-1-(3-methylpyridin-4-yl)imidazo[5,1-c][1,2,4]benzotriazine [Example 131] | 7.2 |  |  | 
4 | COc1cc(OC)c2nnc3c(C)nc(-c4cnccc4C)n3c2c1 [Example 45, 6,8-dimethoxy-3-methyl-1-(4-methylpyridin-3-yl)imidazo[5,1-c][1,2,4]benzotriazine] | 4.16 |  |  | 775
5 | COc1cc(OC)c2nnc3c(C)nc(-c4ccncc4C)n3c2c1 [Example 47, 6,8-dimethoxy-3-methyl-1-(3-methylpyridin-4-yl)-imidazo[5,1-c][1,2,4]benzotriazine] | 2.06 |  |  | 589
6 | COc1cc(OC)c2nnc3c(C)nc(-c4cccnc4C)n3c2c1 [Example 48, 6,8-dimethoxy-3-methyl-1-(2-methylpyridin-3-yl)imidazo[5,1-c][1,2,4]benzotriazine] | 1.48 |  |  | 196
7 | COc1cc(OC)c2nnc3c(C)nc(-c4c(C)n[nH]c4C)n3c2c1 [Example 51, 1-(3,5-dimethyl-1H-pyrazol-4-yl)-6,8-dimethoxy-3-methylimidazo[5,1-c][1,2,4]benzotriazine] | 0.7 |  |  | 210
8 | COc1cc(OC)c2nnc3c(C)nc(-c4c(C)nn(C)c4C)n3c2c1 [Example 52, 6,8-dimethoxy-3-methyl-1-(1,3,5-trimethyl-1H-pyrazol-4-yl)imidazo[5,1-c][1,2,4]benzotriazine] | 1.85 |  |  | 292
9 | COc1cccc2c1nnc1c(C)nc(-c3ccccc3C)n12 [Example 60, 6-methoxy-3-methyl-1-(2-methylphenyl)imidazo[5,1-c][1,2,4]benzotriazine] | 3.31 |  |  | 172
10 | COc1cccc2c1nnc1c(C)nc(-c3ccccc3Cl)n12 [Example 61, 1-(2-chlorophenyl)-6-methoxy-3-methylbenzo[e]imidazo[5,1-c][1,2,4]triazine] | 2.41 |  |  | 103
11 | COc1cccc2c1nnc1c(C)nc(-c3ccncc3C)n12 [Example 62, 6-methoxy-3-methyl-1-(3-methylpyridin-4-yl)imidazo[5,1-c][1,2,4]benzotriazine] | 8.34 |  |  | 442
12 | COc1cc(N2CCOCC2)cc2c1nnc1c(C)nc(-c3ccncc3C)n12 [Example 63, 6-methoxy-3-methyl-1-(3-methylpyridin-4-yl)-8-morpholin-4-ylimidazo[5,1-c][1,2,4]benzotriazine] | 3.99 |  |  | 437
13 | COc1cc(N2CCOCC2)cc2c1nnc1c(C)nc(-c3cccnc3C)n12 [Example 64, 6-methoxy-3-methyl-1-(2-methylpyridin-3-yl)-8-morpholin-4-ylimidazo[5,1-c][1,2,4]benzotriazine] | 1.92 |  |  | 70.4
14 | COc1cc(N2CCOCC2)cc2c1nnc1c(C)nc(-c3ccccc3Cl)n12 [Example 65, 1-(2-chlorophenyl)-6-methoxy-3-methyl-8-morpholin-4-ylimidazo[5,1-c][1,2,4]benzotriazine] | 0.85 |  |  | 50.4
15 | COc1cc(N2CCOCC2)cc2c1nnc1c(C)nc(-c3ccccc3C)n12 [Example 66, 6-methoxy-3-methyl-1-(2-methylphenyl)-8-morpholin-4-ylimidazo[1,5-c][1,2,4]benzotriazine] | 1.53 |  |  | 110
16 | COc1cccc(-c2nc(C)c3nnc4c(F)cc(OC)cc4n23)c1 [Example 67, 6-fluoro-8-methoxy-1-(3-methoxyphenyl)-3-methylimidazo[5,1-c][1,2,4]benzotriazine] | 16.8 |  |  | 64.8
17 | COc1cc(F)c2nnc3c(C)nc(-c4cc(Cl)ccc4OC)n3c2c1 [Example 68, 1-(5-chloro-2-methoxyphenyl)-6-fluoro-8-methoxy-3-methylimidazo[5,1-c][1,2,4]benzotriazine] | 64.2 |  |  | 109
18 | COc1cc(F)c2nnc3c(C)nc(-c4ccc(F)cc4C)n3c2c1 [Example 69, 6-fluoro-1-(4-fluoro-2-methylphenyl)-8-methoxy-3-methylimidazo[5,1-c][1,2,4]benzotriazine] | 34.7 |  |  | 55.5
19 | COc1cc(F)c2nnc3c(C)nc(-c4ccc(F)cc4Cl)n3c2c1 [Example 70, 1-(2-chloro-4-fluorophenyl)-6-fluoro-8-methoxy-3-methylimidazo[5,1-c][1,2,4]benzotriazine] | 12.5 |  |  | 22.8
20 | COc1cc(F)c2nnc3c(C)nc(-c4ccc(C)cc4Cl)n3c2c1 [Example 71, 1-(2-chloro-4-methylphenyl)-6-fluoro-8-methoxy-3-methylimidazo[5,1-c][1,2,4]benzotriazine] | 11.4 |  |  | 5.53
21 | COc1cc(F)c2nnc3c(C)nc(-c4cc(C)ccc4Cl)n3c2c1 [Example 72, 1-(2-chloro-5-methylphenyl)-6-fluoro-8-methoxy-3-methylimidazo[5,1-c][1,2,4]benzotriazine] | 7.77 |  |  | 14.4
22 | COc1cc(F)c2nnc3c(C)nc(-c4cc(F)ccc4C)n3c2c1 [Example 73, 6-fluoro-1-(5-fluoro-2-methylphenyl)-8-methoxy-3-methylimidazo[5,1-c][1,2,4]benzotriazine] | 18.9 |  |  | 15.1
23 | COc1cc(F)c2nnc3c(C)nc(-c4ccc(C)cc4F)n3c2c1 [Example 74, 6-fluoro-1-(2-fluoro-4-methylphenyl)-8-methoxy-3-methylimidazo[5,1-c][1,2,4]benzotriazine] | 38.5 |  |  | 134
24 | COc1cc(F)c2nnc3c(C)nc(-c4cc(C)ccc4F)n3c2c1 [Example 75, 6-fluoro-1-(2-fluoro-5-methylphenyl)-8-methoxy-3-methylimidazo[5,1-c][1,2,4]benzotriazine] | 15 |  |  | 13.9
25 | COc1ccc(F)c(-c2nc(C)c3nnc4c(F)cc(OC)cc4n23)c1 [Example 76, 6-fluoro-1-(2-fluoro-5-methoxyphenyl)-8-methoxy-3-methylimidazo[5,1-c][1,2,4]benzotriazine] | 9.6 |  |  | 9.3
26 | CCOc1ccc(Cl)c(-c2nc(C)c3nnc4c(F)cc(OC)cc4n23)c1 [Example 77, 1-(2-chloro-5-ethoxyphenyl)-6-fluoro-8-methoxy-3-methylimidazo[5,1-c][1,2,4]benzotriazine] | 30.9 |  |  | 10.3
27 | COc1cc(F)cc2c1nnc1c(C)nc(-c3cc(C)ccc3F)n12 [Example 105, 8-fluoro-1-(2-fluoro-5-methylpehnyl)-6-methoxy-3-methylimidazo[5,1-c][1,2,4]benzotriazine] | 7.13 |  |  | 
28 | COc1cc(F)cc2c1nnc1c(C)nc(-c3cc(F)ccc3Cl)n12 [Example 118, 1-(2-chloro-5-fluorophenyl)-8-fluoro-6-methoxy-3-methylimidazo[5,1-c][1,2,4]benzotriazine] | 2.02 |  |  | 
29 | Cc1cnccc1-c1nc(C)c2nnc3c(Cl)cc(C(F)(F)F)cc3n12 [Example 132, 6-Chloro-3-methyl-1-(3-methylpyridin-4-yl)-8-(trifluoromethyl)imidazo[5,1-c][1,2,4]benzotriazine] | 32.7 |  |  | 
30 | COc1ccc(Cl)cc1-c1nc(C)c2nnc3c(OC)cc(C(F)(F)F)cc3n12 [Example 142, 1-(5-Chloro-2-methoxyphenyl)-6-methoxy-3-methyl-8-(trifluoromethyl)benzo[e]imidazo[5,1-c][1,2,4]triazine] | 10.6 |  |  | 
